pIC50: −log10 of the molar value. Active and inactive are the calls of the source. No cut-off for these calls is given here.
Assays:
CCRF-CEM [1] = experiment: Cytotoxicity against human CCRF-CEM cells after 72 hrs by XTT assay; assay type: functional, cell-based
CCRF-CEM [2] = experiment: Cytotoxicity against human taxol-resistant CCRF-CEM cells after 72 hrs by XTT assay; assay type: functional, cell-based
CCRF-CEM [3] = experiment: Cytotoxicity against human vinblastine-resistant CCRF-CEM cells after 72 hrs by XTT assay; assay type: functional, cell-based
MX1 [4] = experiment: Cytotoxicity against human MX1 cells after 72 hrs by SRB assay; assay type: functional, cell-based; conditions: MX1, 72 h
HCT-116 = experiment: Cytotoxicity against human HCT116 cells after 72 hrs by SRB assay; assay type: functional, cell-based; conditions: HCT-116, 72 h
[5] = Cytotoxicity against human H1299 cells after 72 hrs by alamar blue assay; assay type: functional, cell-based; conditions: NCI-H1299, 72 h
PC-3 = experiment: Cytotoxicity against human PC3 cells after 72 hrs by alamar blue assay; assay type: functional, cell-based; conditions: PC-3, 72 h
[6] = Cytotoxicity against human OECM1 cells after 72 hrs by alamar blue assay; assay type: functional, cell-based; conditions: OECM1, 72 h
[7] = Cytotoxicity against human U87 cells after 72 hrs by alamar blue assay; assay type: functional, cell-based, U-87MG ATCC; conditions: U-87 MG
[8] = Cell cycle arrest in human H1299 cells assessed as reduction in G1 phase cells at 25 uM at 24 hrs by propidium iodideee-based flow cytometry; assay type: functional; conditions: NCI-H1299
[9] = Cell cycle arrest in human H1299 cells assessed as accumulation of G1 phase cells at 25 uM at 48 hrs by propidium iodideee-based flow cytometry; assay type: functional; conditions: NCI-H1299
Nucleic Acid = experiment: Induction of Escherichia coli pEGFP-N1 DNA interstrand cross-linking at 1 to 20 uM after 2 hrs using ethidium bromide staining by alkaline agarose gel shift assay; assay type: nucleic-acid assay
CCRF-CEM [10] = experiment: Ratio of IC50 for human taxol-resistant CCRF-CEM cells to IC50 for human CCRF-CEM cells; assay type: functional
CCRF-CEM [11] = experiment: Ratio of IC50 for human vinblastine-resistant CCRF-CEM cells to IC50 for human CCRF-CEM cells; assay type: functional
MX1 [12] = experiment: Antitumor activity against human MX1 cells xenografted in athymic nude mouse assessed as tumor suppression at 30 mg/kg, iv administered q2d for 4 days; assay type: functional
Mus musculus [13] = experiment: Toxicity in athymic nude mouse assessed as weight loss at 20 mg/kg, iv administered q2d for 3 days followed by 25 mg/kg, iv q2d for 4 days; assay type: organism-based; conditions: in vivo
Mus musculus [14] = experiment: Toxicity in athymic nude mouse assessed as weight loss at 10 mg/kg, iv administered q2d for 4 days; assay type: organism-based; parameters: dose 10 mg/kg, route intravenous; conditions: in vivo, 96 h
Mus musculus [15] = experiment: Toxicity in athymic nude mouse assessed as weight loss at 30 mg/kg, iv administered q2d for 4 days; assay type: organism-based; parameters: dose 30 mg/kg, route intravenous; conditions: in vivo, 96 h
[16] = Cell cycle arrest in human H1299 cells assessed as accumulation of sub-G1 phase cells after 24 to 48 hrs by propidium iodidee-based flow cytometry; assay type: functional; conditions: NCI-H1299
[17] = Cell cycle arrest in human H1299 cells assessed as accumulation of G2/M phase cells after 24 to 48 hrs by propidium iodidee-based flow cytometry; assay type: functional; conditions: NCI-H1299
[18] = Cell cycle arrest in human H1299 cells assessed as reduction in G1 phase cells after 24 to 48 hrs by propidium iodidee-based flow cytometry; assay type: functional; conditions: NCI-H1299

**Q.** What does the source list for `OCc1c(CO)c2sc3ccccc3n2c1-c1ccc(Cl)cc1`?
**A.** pIC50 (CCRF-CEM [1]): 5.58; pIC50 (CCRF-CEM [2]): 5.28; pIC50 (CCRF-CEM [3]): 5.39; pIC50 (MX1 [4]): 4.98; pIC50 (HCT-116): 5.03; pIC50 [5]: 4.91; pIC50 (PC-3): 4.69; pIC50 [6]: 4.84; pIC50 [7]: 4.68; Activity [8]: Active; Activity [9]: Active; Activity (Nucleic Acid): Active; Ratio IC50 (CCRF-CEM [10]): 2; Ratio IC50 (CCRF-CEM [11]): 1.56

**Q.** With `CCNC(=O)OCc1c(COC(=O)NCC)c2sc3ccccc3n2c1-c1ccc(F)c(F)c1` as the compound, how does the pIC50 (CCRF-CEM [1]) read?
**A.** 6.68

**Q.** What about the pIC50 (CCRF-CEM [2]) of the same compound?
**A.** 6.47

**Q.** And the pIC50 (CCRF-CEM [3])?
**A.** 6.51

**Q.** And the pIC50 (MX1 [4])?
**A.** 5.83

**Q.** And the pIC50 (HCT-116)?
**A.** 5.96

**Q.** What about the pIC50 [5] of the same compound?
**A.** 4.99

**Q.** What about the pIC50 (PC-3) of the same compound?
**A.** 4.72

**Q.** What about the pIC50 [6] of the same compound?
**A.** 4.84

**Q.** And the pIC50 [7]?
**A.** 4.41

**Q.** And the “Ratio IC50” value (CCRF-CEM [10])?
**A.** 1.61

**Q.** What about the “Ratio IC50” value (CCRF-CEM [11]) of the same compound?
**A.** 1.47

**Q.** With `Cc1c(COC(=O)NC(C)C)c(COC(=O)NC(C)C)c2sc3ccccc3n12` as the compound, how does the pIC50 (CCRF-CEM [1]) read?
**A.** 6.89

**Q.** What about the pIC50 (CCRF-CEM [2]) of the same compound?
**A.** 6.66

**Q.** What about the pIC50 (CCRF-CEM [3]) of the same compound?
**A.** 6.60

**Q.** And the pIC50 (MX1 [4])?
**A.** 6.89

**Q.** What about the pIC50 (HCT-116) of the same compound?
**A.** 6.01

**Q.** What about the pIC50 [5] of the same compound?
**A.** 5.01

**Q.** And the “Ratio IC50” value (CCRF-CEM [10])?
**A.** 1.69

**Q.** And the “Ratio IC50” value (CCRF-CEM [11])?
**A.** 1.92

**Q.** With `CCNC(=O)OCc1c(COC(=O)NCC)c2sc3ccccc3n2c1-c1ccc(OC)cc1` as the compound, how does the pIC50 (CCRF-CEM [1]) read?
**A.** 6.72

**Q.** What about the pIC50 (CCRF-CEM [2]) of the same compound?
**A.** 6.43

**Q.** And the pIC50 (CCRF-CEM [3])?
**A.** 6.38

**Q.** What about the pIC50 [5] of the same compound?
**A.** 5.05

**Q.** And the pIC50 (PC-3)?
**A.** 4.75

**Q.** And the pIC50 [6]?
**A.** 5.03

**Q.** What about the pIC50 [7] of the same compound?
**A.** 4.53

**Q.** What about the Activity (Nucleic Acid) of the same compound?
**A.** Active

**Q.** And the “Ratio IC50” value (CCRF-CEM [10])?
**A.** 1.9

**Q.** And the “Ratio IC50” value (CCRF-CEM [11])?
**A.** 2.2

**Q.** With `CCNC(=O)OCc1c(COC(=O)NCC)c2sc3ccccc3n2c1-c1ccc(Cl)c(Cl)c1` as the compound, how does the pIC50 (CCRF-CEM [1]) read?
**A.** 6.42

**Q.** With `OCc1c(CO)c2sc3ccccc3n2c1-c1ccc(Cl)c(Cl)c1` as the compound, how does the pIC50 (CCRF-CEM [1]) read?
**A.** 5.98

**Q.** With `CCNC(=O)OCc1c(COC(=O)NCC)c2sc3ccccc3n2c1-c1ccc(Cl)cc1` as the compound, how does the pIC50 (CCRF-CEM [1]) read?
**A.** 6.68

**Q.** And the pIC50 (CCRF-CEM [2])?
**A.** 6.49

**Q.** And the pIC50 (CCRF-CEM [3])?
**A.** 6.41

**Q.** What about the pIC50 (MX1 [4]) of the same compound?
**A.** 6.04

**Q.** What about the pIC50 (HCT-116) of the same compound?
**A.** 6.15

**Q.** And the pIC50 [5]?
**A.** 5.36

**Q.** And the pIC50 (PC-3)?
**A.** 4.86

**Q.** What about the pIC50 [6] of the same compound?
**A.** 4.94

**Q.** And the pIC50 [7]?
**A.** 4.58

**Q.** What about the Activity (MX1 [12]) of the same compound?
**A.** >99%

**Q.** And the Activity (Mus musculus [13])?
**A.** 20%

**Q.** What about the Activity (Mus musculus [14]) of the same compound?
**A.** 20%

**Q.** What about the Activity (Mus musculus [15]) of the same compound?
**A.** 20%

**Q.** And the Activity [16]?
**A.** Active

**Q.** And the Activity [17]?
**A.** Active

**Q.** What about the Activity [18] of the same compound?
**A.** Dose-dependent effect

**Q.** What about the Activity (Nucleic Acid) of the same compound?
**A.** Active

**Q.** And the “Ratio IC50” value (CCRF-CEM [10])?
**A.** 1.52

**Q.** And the “Ratio IC50” value (CCRF-CEM [11])?
**A.** 1.85

**Q.** With `CCNC(=O)OCc1c(COC(=O)NCC)c2sc3ccccc3n2c1-c1ccc(F)c(Cl)c1` as the compound, how does the pIC50 (CCRF-CEM [1]) read?
**A.** 6.42

**Q.** With `CC(C)NC(=O)OCc1c(COC(=O)NC(C)C)c2sc3ccccc3n2c1C1CC1` as the compound, how does the pIC50 (CCRF-CEM [1]) read?
**A.** 7.00

**Q.** And the pIC50 (CCRF-CEM [2])?
**A.** 6.14

**Q.** What about the pIC50 (CCRF-CEM [3]) of the same compound?
**A.** 6.05

**Q.** And the pIC50 [5]?
**A.** 4.69

**Q.** What about the pIC50 (PC-3) of the same compound?
**A.** 4.87

**Q.** What about the pIC50 [6] of the same compound?
**A.** 5.01

**Q.** What about the pIC50 [7] of the same compound?
**A.** 4.34

**Q.** What about the “Ratio IC50” value (CCRF-CEM [10]) of the same compound?
**A.** 7.3

**Q.** What about the “Ratio IC50” value (CCRF-CEM [11]) of the same compound?
**A.** 9

**Q.** What does the source list for `COc1ccc(-c2c(COC(=O)NC(C)C)c(COC(=O)NC(C)C)c3sc4ccccc4n23)cc1`?
**A.** pIC50 (CCRF-CEM [1]): 6.85; pIC50 (CCRF-CEM [2]): 6.77; pIC50 (CCRF-CEM [3]): 6.60; pIC50 [5]: 5.09; pIC50 (PC-3): 4.76; pIC50 [6]: 5.14; pIC50 [7]: 4.22; Activity (Nucleic Acid): Active; Ratio IC50 (CCRF-CEM [10]): 1.17; Ratio IC50 (CCRF-CEM [11]): 1.47

**Q.** With `COc1ccc(-c2c(CO)c(CO)c3sc4ccccc4n23)cc1` as the compound, how does the pIC50 (CCRF-CEM [1]) read?
**A.** 5.95

**Q.** And the pIC50 (CCRF-CEM [2])?
**A.** 5.66

**Q.** What about the pIC50 (CCRF-CEM [3]) of the same compound?
**A.** 5.58

**Q.** And the pIC50 [5]?
**A.** 5.00

**Q.** And the pIC50 (PC-3)?
**A.** 5.06

**Q.** What about the pIC50 [6] of the same compound?
**A.** 5.30

**Q.** And the pIC50 [7]?
**A.** 4.74

**Q.** And the Activity (Nucleic Acid)?
**A.** Active

**Q.** And the “Ratio IC50” value (CCRF-CEM [10])?
**A.** 1.9

**Q.** What about the “Ratio IC50” value (CCRF-CEM [11]) of the same compound?
**A.** 2.3

**Q.** Which “Ratio IC50” value (CCRF-CEM [10]) does the source give for `CC(=O)O[C@H]1C(=O)[C@@]2(C)[C@H]([C@H](OC(=O)c3ccccc3)[C@]3(O)C[C@H](OC(=O)[C@H](O)[C@@H](NC(=O)c4ccccc4)c4ccccc4)C(C)=C1C3(C)C)[C@]1(OC(C)=O)CO[C@@H]1C[C@@H]2O` [PACLITAXEL] here?
**A.** 358

**Q.** And the “Ratio IC50” value (CCRF-CEM [11])?
**A.** 980

**Q.** With `CCNC(=O)OCc1c(COC(=O)NCC)c2sc3ccccc3n2c1C` as the compound, how does the pIC50 (CCRF-CEM [1]) read?
**A.** 6.48

**Q.** What about the pIC50 (CCRF-CEM [2]) of the same compound?
**A.** 6.35

**Q.** What about the pIC50 (CCRF-CEM [3]) of the same compound?
**A.** 6.37

**Q.** What about the “Ratio IC50” value (CCRF-CEM [10]) of the same compound?
**A.** 1.3

**Q.** And the “Ratio IC50” value (CCRF-CEM [11])?
**A.** 1.3

**Q.** With `COc1cc(-c2c(CO)c(CO)c3sc4ccccc4n23)cc(OC)c1OC` as the compound, how does the pIC50 (CCRF-CEM [1]) read?
**A.** 5.39

**Q.** With `Cc1c(CO)c(CO)c2sc3ccccc3n12` as the compound, how does the pIC50 (CCRF-CEM [1]) read?
**A.** 6.01

**Q.** What about the pIC50 (CCRF-CEM [2]) of the same compound?
**A.** 5.73

**Q.** And the pIC50 (CCRF-CEM [3])?
**A.** 5.73

**Q.** What about the pIC50 (MX1 [4]) of the same compound?
**A.** 5.15

**Q.** And the pIC50 (HCT-116)?
**A.** 5.35

**Q.** What about the “Ratio IC50” value (CCRF-CEM [10]) of the same compound?
**A.** 1.93

**Q.** And the “Ratio IC50” value (CCRF-CEM [11])?
**A.** 1.91

— ChEMBL document CHEMBL2034957, “Synthesis and antitumor evaluation of novel benzo[d]pyrrolo[2,1-b]thiazole derivatives” (Eur J Med Chem, 2012)
